The values that follow come from patent US7998987B2, “Inhibitors of c-Met and uses thereof” (Vertex Pharmaceuticals Incorporated, priority 2005, dated 2011).

Chain of c-Met (P08581 25-1390): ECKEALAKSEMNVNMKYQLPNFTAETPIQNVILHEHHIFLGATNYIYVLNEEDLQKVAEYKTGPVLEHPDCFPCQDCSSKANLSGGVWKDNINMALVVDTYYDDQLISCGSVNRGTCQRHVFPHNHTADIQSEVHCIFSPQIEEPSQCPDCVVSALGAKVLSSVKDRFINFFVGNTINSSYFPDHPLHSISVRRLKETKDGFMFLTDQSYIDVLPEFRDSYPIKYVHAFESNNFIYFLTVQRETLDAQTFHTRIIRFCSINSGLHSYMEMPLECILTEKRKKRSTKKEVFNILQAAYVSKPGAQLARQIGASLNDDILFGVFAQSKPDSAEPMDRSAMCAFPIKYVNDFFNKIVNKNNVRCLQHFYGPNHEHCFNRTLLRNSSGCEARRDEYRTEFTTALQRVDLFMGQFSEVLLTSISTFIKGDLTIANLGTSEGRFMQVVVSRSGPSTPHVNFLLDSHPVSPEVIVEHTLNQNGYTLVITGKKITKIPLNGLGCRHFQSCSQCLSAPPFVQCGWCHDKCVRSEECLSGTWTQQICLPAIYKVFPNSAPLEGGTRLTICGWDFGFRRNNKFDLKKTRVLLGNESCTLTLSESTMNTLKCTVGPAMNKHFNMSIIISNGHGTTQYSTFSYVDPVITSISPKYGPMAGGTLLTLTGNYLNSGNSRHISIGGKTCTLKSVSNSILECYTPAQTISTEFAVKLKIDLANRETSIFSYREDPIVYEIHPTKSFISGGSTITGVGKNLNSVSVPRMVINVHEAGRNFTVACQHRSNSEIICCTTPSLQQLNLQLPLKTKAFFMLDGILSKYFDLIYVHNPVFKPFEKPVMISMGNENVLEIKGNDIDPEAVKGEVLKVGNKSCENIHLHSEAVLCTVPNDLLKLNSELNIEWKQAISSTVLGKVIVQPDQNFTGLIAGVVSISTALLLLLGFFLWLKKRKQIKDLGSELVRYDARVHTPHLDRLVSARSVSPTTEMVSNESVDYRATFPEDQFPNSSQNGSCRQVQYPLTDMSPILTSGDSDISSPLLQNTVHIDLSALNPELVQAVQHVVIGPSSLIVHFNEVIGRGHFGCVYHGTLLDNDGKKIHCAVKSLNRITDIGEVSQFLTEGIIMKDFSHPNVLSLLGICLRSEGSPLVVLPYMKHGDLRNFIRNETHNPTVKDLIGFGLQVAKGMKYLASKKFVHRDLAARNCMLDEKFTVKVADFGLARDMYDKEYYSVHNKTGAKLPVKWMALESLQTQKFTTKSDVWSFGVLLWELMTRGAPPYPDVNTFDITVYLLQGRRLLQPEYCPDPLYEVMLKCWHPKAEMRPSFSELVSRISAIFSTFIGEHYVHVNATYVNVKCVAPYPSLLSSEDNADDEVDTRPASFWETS

The target of the assay is c-Met (Homo sapiens, UniProt P08581). Put plainly: Ki determination for the inhibition of c-Met kinase activity (standard coupled enzyme system). It counts as biochemical. The conditions noted are these: coupled enzyme system, 200 μM ATP, 10 μM polyGluTyr, 80 nM c-Met, 30° C.; read-out: c-Met Ki. As for the experimental part:
Ki Determination for the Inhibition of c-Met
Reactions were carried out in a solution containing 100 mM HEPES (pH 7.5), 10 mM MgCl2, 25 mM NaCl, 300 μM NADH, 1 mM DTT, and 1.5% DMSO. Final substrate concentrations in the assay were 200 μM ATP (Sigma Chemicals, St Louis, Mo.) and 10 μM polyGluTyr (Sigma Chemical Company, St. Louis). Reactions were carried out at 30° C. and 80 nM c-Met. Final concentrations of the components of the coupled enzyme system were 2.5 mM phosphoenolpyruvate, 300 μM NADH, 30 μg/ml pyruvate kinase and 10 μg/ml lactate dehydrogenase.
An assay stock buffer solution was prepared containing all of the reagents listed above with the exception of ATP and a test compound of the present invention. […] The reaction was initiated by the addition of 20 μL of ATP (final concentration 200 μM). Rates of reaction were obtained using a Molecular Devices Spectramax plate reader (Sunnyvale, Calif.) over 10 minutes at 30° C. The Ki values were determined from the rate data as a function of inhibitor concentration.
For orientation: Ki means the dissociation constant of the complex between target and ligand, obtained from inhibition or displacement. `Nc1nn2c(Cc3ccc(OCc4ccccc4)cc3)nnc2s1` [Compound 1]: the Ki is above 2000 nM.
To `c1csc(-c2nn3c(Cc4ccc5c(c4)OCO5)nnc3s2)c1` [Compound 2, 3-((benzo[d][1,3]dioxol-5-yl)methyl)-6-(thiophen-2-yl)-[1,2,4]triazolo[3,4-b][1,3,4]thiadiazole] belongs 100 to 2000 nM; to `COc1ccc(Cc2nnc3sc(-c4ccccc4)nn23)cc1` [Compound 3], above 2000 nM; to `Nc1nn2c(Cc3ccc(O)cc3)nnc2s1` [Compound 7], 100 to 2000 nM.
`Oc1ccc(Cc2nnc3sc(NCc4ccccc4)nn23)cc1` [Compound 8]: the Ki lay within 100 to 2000 nM.
The value for `Oc1ccc(Cc2nnc3sc(NCc4cccnc4)nn23)cc1` [Compound 9] was 100 to 2000 nM; that for `Oc1ccc(Cc2nnc3sc(Nc4ccccn4)nn23)cc1` [Compound 10] was above 2000 nM.
Consider `COCC1CCCN1c1nn2c(Cc3ccc(OC)cc3)nnc2s1` (stereo not shown) [Compound 12], for which the Ki is above 2000 nM.
To `CNc1nn2c(Cc3ccc(O)cc3)nnc2s1` [Compound 14] belongs 100 to 2000 nM; to `Oc1ccc(Cc2nnc3sc(NCCN4CCOCC4)nn23)cc1` [Compound 15], above 2000 nM.
Regarding `COC(=O)c1ccc(Nc2nn3c(Cc4ccc(O)cc4)nnc3s2)cc1` [Compound 16], the Ki is below 100 nM.
Turning to `Oc1ccc(Cc2nnc3sc(NCC4CCCO4)nn23)cc1` (stereo not shown) [Compound 17], the Ki lay within 100 to 2000 nM.
The value for `N#Cc1cccc(Nc2nn3c(Cc4ccc(O)cc4)nnc3s2)c1` [Compound 18] was above 2000 nM; that for `Oc1ccc(Cc2nnc3sc(NC4CC4)nn23)cc1` [Compound 19] was above 2000 nM.
To `COc1ccc(Cc2nnc3sc(-c4ccccn4)nn23)cc1` [Compound 20] belongs 100 to 2000 nM; to `COc1ccc(Cc2nnc3sc(Cc4ccccc4)nn23)cc1` [Compound 21], above 2000 nM; to `COc1ccc(Cc2nnc3sc(-c4cccs4)nn23)cc1` [Compound 22], 100 to 2000 nM.
To `COc1ccc(Cc2nnc3sc(CNC(C)=O)nn23)cc1` [Compound 23] belongs above 2000 nM.
Regarding `COc1ccc(Cc2nnc3sc(C4CCCCN4)nn23)cc1` (stereo not shown) [Compound 24], the Ki is above 2000 nM.
To `COc1cc(Cc2nnc3sc(Nc4ccccc4)nn23)ccc1O` [Compound 26] belongs 100 to 2000 nM; to `COc1ccccc1Nc1nn2c(Cc3ccc4c(c3)OCO4)nnc2s1` [Compound 28], 100 to 2000 nM.
The value for `COc1ccccc1Nc1nn2c(Cc3ccc(O)cc3)nnc2s1` [Compound 29] was 100 to 2000 nM; that for `COc1ccccc1Nc1nn2c(Cc3ccc(O)c(F)c3)nnc2s1` [Compound 30] was 100 to 2000 nM.
To `COc1ccccc1Nc1nn2c(Cc3ccc(O)c(Cl)c3)nnc2s1` [Compound 31] belongs 100 to 2000 nM; to `COc1ccccc1Nc1nn2c(C(C)c3ccc(O)cc3)nnc2s1` (stereo not shown) [Compound 32], 100 to 2000 nM; to `COc1cc(Cc2nnc3sc(Nc4ccccc4OC)nn23)ccc1O` [Compound 33], above 2000 nM.
For the molecule `COc1cccc(Nc2nn3c(Cc4ccc5c(c4)OCO5)nnc3s2)c1` [Compound 34], the inhibitory constant (Ki) was in the range of 100 to 2000 nM.
To `COc1cccc(Nc2nn3c(Cc4ccc(O)c(F)c4)nnc3s2)c1` [Compound 35] belongs 100 to 2000 nM; to `COc1cccc(Nc2nn3c(Cc4ccc(O)c(Cl)c4)nnc3s2)c1` [Compound 36], 100 to 2000 nM; to `COc1cccc(Nc2nn3c(C(C)c4ccc(O)cc4)nnc3s2)c1` (stereo not shown) [Compound 37], below 100 nM.
To `COc1cccc(Nc2nn3c(Cc4ccc(O)c(OC)c4)nnc3s2)c1` [Compound 38] belongs 100 to 2000 nM.
Turning to `COc1ccc(Nc2nn3c(Cc4ccc(O)c(Cl)c4)nnc3s2)cc1` [Compound 39], the Ki is 100 to 2000 nM.
For the molecule `COc1ccc(Nc2nn3c(C(C)c4ccc(O)cc4)nnc3s2)cc1` (stereo not shown) [Compound 40], the Ki was below 100 nM.
As for `CN(C)c1nn2c(Cc3ccc(O)cc3)nnc2s1` [Compound 41], the Ki is above 2000 nM.
